Reference: US11229204B2, “Herbicidal composition comprising at least one phenolic active compound” (UNIVERSITÉ DE LIÈGE, priority 2018, dated 2022)

Columns and labels:
[1] = test system: Raphanus sativus and Lepidium sativum; details: 27 flavonoids tested; only poor results on radical elongation for the highest tested concentration of 10^−4M; cited from earlier work
Trifolium incarnatum = test: Pre-emergence activity, experiment n° 2: hypocotyl and root lengths of seeds on moistened filter paper; format: in vivo; details: 100 mg/L in methanol 1%
Experimental: Seeds of Trifolium incarnatum were obtained from ECOSEM industry (Belgium). Filter papers were placed in petri dishes and moistened with 2 ml of methanol 1% solution for the seedling control, or with myricitrin solution at 100 mg/L in methanol 1% for the treated seedling. Methanol was identified as a solvent not interfering with the pre-emergence of plants. Ten seeds of Trifolium incarnatum were then placed immediately in each petri dish and three replicates were prepared. All petri dishes were randomly placed in a growth chamber at a temperature of 23±1° C., in the dark and the hypocotyls and root lengths were measured after 7 days.

Row | Compound | effect on germination and radical elongation [1] | seed germination compared with control (Trifolium incarnatum; 7 incubation days) | development of roots and hypocotyls (Trifolium incarnatum; 7 days (FIG. 5)) | phytotoxic effect on the pre-emergence in comparison with the control (Trifolium incarnatum; 7 days, 23±1° C., dark (FIG. 5))
1 | COc1c(-c2ccccc2)oc2ccccc2c1=O [3-OCH3-flavone] | act on germination and on radical elongation |  |  | 
2 | COc1ccc(-c2cc(=O)c3ccccc3o2)cc1OC [3′,4′-di-OCH3-flavone] | act on germination and on radical elongation |  |  | 
3 | O=C1C[C@@H](c2ccccc2)Oc2cc(O)cc(O)c21 [pinocembrin, 5,7-di-OH-flavanone] | act on germination and on radical elongation |  |  | 
4 | O=c1c(O)c(-c2ccc(O)c(O)c2)oc2cc(O)cc(O)c12 [quercetin, 3,5,7,3′,4′-penta-OH-flavone] | act on germination and on radical elongation |  |  | 
5 | C[C@@H]1O[C@@H](Oc2c(-c3cc(O)c(O)c(O)c3)oc3cc(O)cc(O)c3c2=O)[C@H](O)[C@H](O)[C@H]1O [myricitrin] |  | inhibited seed germination | inhibited | significant phytotoxic effect
